According to ChEMBL document CHEMBL1201862, “PubChem BioAssay data set” (2004):
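96-well plates; 48 h exposure; 5 concentrations. Endpoints by linear interpolation between flanking doses. Not reached: highest tested concentration assigned. Abbreviation: GI50, concentration required for 50% inhibition of growth.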 Calls of active or inactive are those of the source. Cut-off read from the data, not from the text of the source: active = GI50 up to about 1.1 µM and inactive = higher.

Legend:
Test in all cases: growth of human tumour cells (NCI), 48 h
Malme-3M = system: Malme-3M
OVCAR-5 = system: OVCAR-5
KM12 = system: KM12
SNB-78 = system: SNB-78
UACC-257 = system: UACC-257
COLO 205 = system: COLO 205
M19-MEL = system: M19-MEL
SK-MEL-2 = system: SK-MEL-2
OVCAR-8 = system: OVCAR-8
HOP-92 = system: HOP-92
SR = system: SR
HL-60 = system: HL-60
HOP-18 = system: HOP-18
U-251 = system: U-251
OVCAR-4 = system: OVCAR-4
TK-10 = system: TK-10
XF498 = system: XF498
HOP-62 = system: HOP-62
SK-MEL-28 = system: SK-MEL-28
HT-29 = system: HT-29
LOX IMVI = system: LOX IMVI
HCC 2998 = system: HCC 2998
SNB-19 = system: SNB-19
NCI-H226 = system: NCI-H226
EKVX = system: EKVX
ACHN = system: ACHN
UO-31 = system: UO-31
SNB-75 = system: SNB-75
NCI-H460 = system: NCI-H460
NCI-H522 = system: NCI-H522
SF-295 = system: SF-295
SN12C = system: SN12C
NCI-H23 = system: NCI-H23
LXFL 529 = system: LXFL 529
RXF 393 = system: RXF 393
DMS-114 = system: DMS-114
SW-620 = system: SW-620
CAKI-1 = system: CAKI-1
SF-268 = system: SF-268
SK-MEL-5 = system: SK-MEL-5
M14 = system: M14
DLD-1 = system: DLD-1
786-0 = system: 786-0
IGROV-1 = system: IGROV-1
OVCAR-3 = system: OVCAR-3
UACC-62 = system: UACC-62
SF-539 = system: SF-539
SK-OV-3 = system: SK-OV-3
CCRF-CEM = system: CCRF-CEM
KM-20L2 = system: KM-20L2
MOLT-4 = system: MOLT-4
A498 = system: A498
HCT-15 = system: HCT-15
DMS-273 = system: DMS-273
K562 = system: K562
RPMI-8226 = system: RPMI-8226
HCT-116 = system: HCT-116
A549 = system: A549

Measured: GI50

Cn1ccnc1C(O)(c1nccn1C)c1nccn1C
inactive: Malme-3M > 100 µM | OVCAR-5 > 100 µM | KM12 > 100 µM | SNB-78 > 100 µM | UACC-257 > 100 µM | COLO 205 > 100 µM | M19-MEL > 100 µM | SK-MEL-2 > 100 µM | OVCAR-8 > 100 µM | HOP-92 > 100 µM | SR > 100 µM | HL-60 > 100 µM | HOP-18 14.1 µM | U-251 > 100 µM | OVCAR-4 > 100 µM | TK-10 > 100 µM | XF498 > 100 µM | HOP-62 > 100 µM | SK-MEL-28 > 100 µM | HT-29 > 100 µM | LOX IMVI > 100 µM | HCC 2998 > 100 µM | SNB-19 > 100 µM | NCI-H226 > 100 µM | EKVX > 100 µM | ACHN > 100 µM | UO-31 > 100 µM | SNB-75 > 100 µM | NCI-H460 > 100 µM | NCI-H522 > 100 µM | SF-295 > 100 µM | SN12C > 100 µM | NCI-H23 > 100 µM | LXFL 529 > 100 µM | RXF 393 > 100 µM | DMS-114 > 100 µM | SW-620 > 100 µM | CAKI-1 > 100 µM | SF-268 > 100 µM | SK-MEL-5 > 100 µM | M14 > 100 µM | DLD-1 > 100 µM

Cc1nc(-c2nc(C)c(C(=O)NN(C)C)s2)sc1C(=O)NN(C)C
inactive: Malme-3M > 100 µM | OVCAR-5 > 100 µM | 786-0 30.7 µM | IGROV-1 > 100 µM | KM12 > 100 µM | SNB-78 > 100 µM | UACC-257 > 100 µM | COLO 205 21.7 µM | M19-MEL > 100 µM | OVCAR-3 > 100 µM | SK-MEL-2 > 100 µM | OVCAR-8 > 100 µM | HOP-92 > 100 µM | SR 19.7 µM | HL-60 43 µM | UACC-62 > 100 µM | SF-539 > 100 µM | SK-OV-3 > 100 µM | HOP-18 > 100 µM | U-251 > 100 µM | OVCAR-4 53 µM | TK-10 > 100 µM | XF498 > 100 µM | HOP-62 > 100 µM | SK-MEL-28 > 100 µM | HT-29 > 100 µM | LOX IMVI 23.6 µM | HCC 2998 > 100 µM | CCRF-CEM 31.2 µM | SNB-19 > 100 µM | KM-20L2 > 100 µM | NCI-H226 > 100 µM | EKVX > 100 µM | ACHN > 100 µM | UO-31 > 100 µM | SNB-75 60.3 µM | NCI-H460 > 100 µM | NCI-H522 34.6 µM | SF-295 > 100 µM | SN12C > 100 µM | NCI-H23 > 100 µM | LXFL 529 > 100 µM | MOLT-4 44.1 µM | CAKI-1 > 100 µM | A498 > 100 µM | SF-268 > 100 µM | DMS-273 16.2 µM | K562 32.6 µM | SK-MEL-5 > 100 µM | M14 > 100 µM | DLD-1 33.9 µM | RPMI-8226 28.8 µM
67.9 µM: HCT-15

CCCn1cc2c(O)nc(SC)nc2n1
inactive: Malme-3M > 100 µM | OVCAR-5 79.4 µM | IGROV-1 > 100 µM | KM12 > 100 µM | SNB-78 32.3 µM | UACC-257 > 100 µM | COLO 205 > 100 µM | SK-MEL-2 > 100 µM | OVCAR-8 > 100 µM | HOP-92 > 100 µM | SR 57.3 µM | HL-60 > 100 µM | SF-539 > 100 µM | HOP-18 28.8 µM | U-251 > 100 µM | OVCAR-4 91.4 µM | TK-10 > 100 µM | XF498 45.3 µM | SK-MEL-28 > 100 µM | HT-29 > 100 µM | LOX IMVI > 100 µM | HCC 2998 > 100 µM | CCRF-CEM > 100 µM | SNB-19 > 100 µM | NCI-H226 19.9 µM | EKVX > 100 µM | ACHN > 100 µM | UO-31 72.6 µM | SNB-75 41.6 µM | NCI-H460 > 100 µM | SF-295 > 100 µM | SN12C > 100 µM | NCI-H23 > 100 µM | LXFL 529 > 100 µM | HCT-116 > 100 µM | A549 > 100 µM | RXF 393 > 100 µM | DMS-114 91.6 µM | MOLT-4 > 100 µM | SW-620 > 100 µM | CAKI-1 > 100 µM | A498 59.6 µM | SF-268 59 µM | DMS-273 > 100 µM | K562 > 10 µM | SK-MEL-5 > 100 µM | M14 > 100 µM | DLD-1 > 100 µM | RPMI-8226 > 100 µM
> 100 µM: HCT-15

CC1=Cc2cccc(C)c2C(=O)C1=O [O-HIBISCANONE]
inactive: Malme-3M 1.8 µM | OVCAR-5 19 µM | 786-0 2.88 µM | IGROV-1 15.6 µM | KM12 4.71 µM | SNB-78 26 µM | UACC-257 2.16 µM | COLO 205 1.91 µM | M19-MEL 7.67 µM | OVCAR-3 4.37 µM | SK-MEL-2 17.3 µM | OVCAR-8 5.85 µM | HOP-92 1.49 µM | UACC-62 5.58 µM | SF-539 6.56 µM | SK-OV-3 18.5 µM | HOP-18 1.42 µM | U-251 10.8 µM | OVCAR-4 5.31 µM | TK-10 2.39 µM | XF498 5.2 µM | HOP-62 17.5 µM | SK-MEL-28 16 µM | HT-29 2.79 µM | LOX IMVI 8.77 µM | HCC 2998 14.6 µM | SNB-19 19.8 µM | KM-20L2 18.9 µM | NCI-H226 15.8 µM | EKVX 8.11 µM | ACHN 5.12 µM | UO-31 13.9 µM | SNB-75 15.8 µM | NCI-H460 20.5 µM | NCI-H522 4.72 µM | SF-295 5.14 µM | SN12C 19.5 µM | NCI-H23 11.1 µM | LXFL 529 2.11 µM | HCT-116 2.73 µM | A549 6.81 µM | RXF 393 4.66 µM | SW-620 1.28 µM | CAKI-1 16.5 µM | A498 17.1 µM | SF-268 11.3 µM | DMS-273 19.9 µM | SK-MEL-5 2.28 µM | M14 4.67 µM | DLD-1 2.13 µM
active: SR 0.26 µM | HL-60 0.481 µM | CCRF-CEM 0.379 µM | MOLT-4 0.52 µM | K562 0.617 µM | RPMI-8226 1.06 µM
6.11 µM: HCT-15
